Test results from patent publication US4214093A, “Amino- or guanidino-1,2,3,4-tetrahydro-1-naphthoic esters” (Torii & Co., Ltd., priority 1977, dated 1980).
Where two headings read alike, the source gives them in different places.

How the values were obtained:
[1] = tested on: clotting activity of thrombin; experiment: Inhibitory activity on plasma clotting (rabbit platelet poor plasma, thrombin-induced); assay type: biochemical
Method: Blood was drawn from carotid artery of an ether anesthetized rabbit with 1/10 volume of 3.8% sodium citrate. Platelet poor plasma (PPP) was prepared from citrated blood which was centrifuged at 3,000 r.p.m. for 15 minutes at 4° C. PPP, 0.9 ml, was taken into cell, 10μ of a compound solution was added and incubated at 37° C. for 10 minutes. […] Compounds were dissolved in distilled water or 50% dimethyl sulfoxide (0.5% final concentration).

Human Plasma Kallikrein = Human Plasma Kallikrein (Homo sapiens, UniProt P03952); experiment: Inhibitory effect on ester-hydrolyzing activity of human plasma kallikrein (TAMe substrate); assay type: biochemical; conditions: for IC50: Table 4 bracketed value, read-out: Kallikrein ID50
Method: (§1) The enzyme-inhibitory activities in vitro of the compounds of this invention were measured by the following procedure according to the method of M. Muramatsu et al. [[…]. […] After the incubation, 1.5 ml of 2 M alkaline hydroxylamine was added and thoroughly mixed, and allowed to stand at room temperature for 15 minutes.

Bovine Thrombin = Bovine Thrombin (Bos taurus, UniProt P00735); experiment: Inhibitory effect on ester-hydrolyzing activity of bovine thrombin (TAMe substrate); assay type: biochemical
Method: The enzyme-inhibitory activities in vitro of the compounds of this invention were measured by the following procedure according to the method of M. Muramatsu et al. [M. Muramatsu, T. Onishi, S. Makino, Y. Hayashi and S. Fujii: J. Biochem., 58, 214 (1965)]
To 0.1 ml of trypsin (5 μg/ml) were added 0.5 ml of 0.1 M borate buffer solution (pH 8.6) containing 10 mM CaCl2, and 0.1 ml of a varying concentration of an inhibitor solution, and preincubation was carried out at 37° C. for 5 minutes. Then, 10 μmoles of the substrate, TAMe (tosylarginine methyl ester), was added, and incubation was preformed at 37° C. for 30 minutes.
After the incubation, 1.5 ml of 2 M alkaline hydroxylamine was added and thoroughly mixed, and allowed to stand at room temperature for 15 minutes. Then, 1.0 ml of each of 18% trichloroacetic acid, 4 N HCl and 10% FeCl3 was added and thoroughly mixed. If necessary, the mixture was centrifuged at 3,000 rpm for 10 minutes, and the absorbance of the supernatant was measured at 530 nm.
It was measured by using 0.4 ml of bovine thrombin […], 0.02 M sodium phosphate buffer solution (pH 7.4) and TAMe as substrate following the method described in (1).

Trypsin = target: T1, Trypsin (Bos taurus, UniProt P00760); experiment: Inhibitory effect on ester-hydrolyzing activity of trypsin (TAMe substrate); assay type: biochemical; conditions: for inhibition at 1000 µM: read-out: Trypsin percent inhibition; for IC50: pH 8.6, 37° C., Table 4 bracketed value, read-out: Trypsin ID50
T1 sequence (P00760 24-246): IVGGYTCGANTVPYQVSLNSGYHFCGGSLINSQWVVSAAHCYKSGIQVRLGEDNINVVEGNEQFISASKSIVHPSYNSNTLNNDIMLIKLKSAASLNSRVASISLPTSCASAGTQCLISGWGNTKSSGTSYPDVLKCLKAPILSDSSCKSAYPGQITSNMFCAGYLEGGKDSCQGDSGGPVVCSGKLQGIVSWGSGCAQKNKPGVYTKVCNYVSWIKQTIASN
Method: as §1

Human Plasmin = Human Plasmin (Homo sapiens, UniProt P00747); experiment: Inhibitory effect on ester-hydrolyzing activity of human plasmin (TAMe substrate); assay type: biochemical; conditions: for IC50: Table 4 bracketed value, read-out: Plasmin ID50; for inhibition at 1000 µM: read-out: Plasmin percent inhibition
Method: as §1, with “minutes. […] It was measured by using 0.1 ml of plasmin (generated by activation of plasminogen with streptokinase) and TAMe as substrate following the method described in (1).” for “minutes.”

Human Cl Esterase = target: T2, Human Cl Esterase (Homo sapiens, UniProt P09871); experiment: Inhibitory effect on ester-hydrolyzing activity of human Cl esterase (ATEe substrate); assay type: biochemical; conditions: for IC50: in vitro, ATEe, pH 7.4, Table 4 bracketed value, read-out: Cl-esterase ID50
T2 sequence (P09871 438-688 limits assumed): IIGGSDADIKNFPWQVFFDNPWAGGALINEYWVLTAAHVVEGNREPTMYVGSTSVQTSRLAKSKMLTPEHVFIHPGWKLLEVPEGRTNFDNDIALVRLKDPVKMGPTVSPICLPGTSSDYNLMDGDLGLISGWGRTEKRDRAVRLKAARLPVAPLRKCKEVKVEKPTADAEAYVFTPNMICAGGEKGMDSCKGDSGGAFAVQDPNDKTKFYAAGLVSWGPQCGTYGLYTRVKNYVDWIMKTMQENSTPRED
T2 sequence (P09871 16-437 partner limits assumed): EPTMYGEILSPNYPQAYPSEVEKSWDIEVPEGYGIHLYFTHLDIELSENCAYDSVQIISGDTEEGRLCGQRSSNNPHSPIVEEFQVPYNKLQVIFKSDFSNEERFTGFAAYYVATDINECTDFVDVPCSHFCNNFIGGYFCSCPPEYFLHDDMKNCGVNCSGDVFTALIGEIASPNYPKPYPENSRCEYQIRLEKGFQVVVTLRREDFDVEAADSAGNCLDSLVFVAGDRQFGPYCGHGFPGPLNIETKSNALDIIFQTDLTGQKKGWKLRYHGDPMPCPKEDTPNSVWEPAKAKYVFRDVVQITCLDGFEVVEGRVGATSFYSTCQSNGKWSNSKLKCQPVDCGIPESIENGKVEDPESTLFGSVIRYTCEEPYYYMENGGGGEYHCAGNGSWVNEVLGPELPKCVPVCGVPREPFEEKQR
Method: It was measured by using 0.1 ml of Cl esterase, 0.1 ml of 0.02 M sodium phosphate buffer solution (pH 7.4 ) and 10 μmoles of ATEe (acetyltyrosine ethyl ester) as substrate following the method described in (1).

[2] = Acute toxicity (LD50) by intraperitoneal administration in mice; conditions: mouse, in vivo, ip
thrombin = experiment: Inhibitory activity on thrombus formation: protection from lethal thrombin injection in mice; assay type: in vivo, mice (ddY strain); conditions: 10 minutes before thrombin 300 NIH units/kg i.v., No. 91 in 2.5% gum arabic
Method: White male mice (ddY strain), 4 weeks age and weighing 18-27 g, were used throughout the experiments. […] The intravenous injection of 300 NIH units/kg of thrombin over 30 seconds into mice was lethal to all animals. The compounds were intraperitoneally administered in doses of 1, 10, and 100 mg/kg in saline unless otherwise described.
Compounds were intraperitoneally administered 10 minutes before thrombin injection. Compound No. 91 was dissolved in 2.5% gum arabic.

Sequence of Human Plasma Kallikrein (P03952 391-638 limits assumed): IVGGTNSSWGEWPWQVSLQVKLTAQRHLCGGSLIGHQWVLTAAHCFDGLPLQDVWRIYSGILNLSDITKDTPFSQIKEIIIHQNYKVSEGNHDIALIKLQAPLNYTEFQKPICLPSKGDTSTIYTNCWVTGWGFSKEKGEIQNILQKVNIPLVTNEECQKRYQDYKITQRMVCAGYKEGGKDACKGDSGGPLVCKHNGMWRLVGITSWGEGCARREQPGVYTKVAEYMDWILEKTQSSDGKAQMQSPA
Sequence of Human Plasma Kallikrein (P03952 20-390 partner limits assumed): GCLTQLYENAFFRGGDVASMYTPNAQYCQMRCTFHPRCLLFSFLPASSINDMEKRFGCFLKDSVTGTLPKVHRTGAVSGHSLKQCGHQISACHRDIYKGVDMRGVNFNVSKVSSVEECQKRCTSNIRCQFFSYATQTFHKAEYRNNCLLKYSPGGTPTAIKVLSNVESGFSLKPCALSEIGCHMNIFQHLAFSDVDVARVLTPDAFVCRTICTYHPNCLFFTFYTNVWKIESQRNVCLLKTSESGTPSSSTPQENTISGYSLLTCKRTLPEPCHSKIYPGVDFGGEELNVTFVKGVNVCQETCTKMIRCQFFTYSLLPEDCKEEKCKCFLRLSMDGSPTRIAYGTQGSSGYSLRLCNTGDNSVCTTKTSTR
Sequence of Human Plasmin (P00747 581-810 limits assumed): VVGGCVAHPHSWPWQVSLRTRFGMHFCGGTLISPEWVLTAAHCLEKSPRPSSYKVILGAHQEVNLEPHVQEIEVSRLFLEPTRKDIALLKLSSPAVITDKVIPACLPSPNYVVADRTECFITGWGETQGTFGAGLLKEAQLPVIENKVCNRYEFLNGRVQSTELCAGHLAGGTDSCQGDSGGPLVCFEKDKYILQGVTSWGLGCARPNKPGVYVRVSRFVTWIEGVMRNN
Sequence of Human Plasmin (P00747 97-580 partner limits assumed): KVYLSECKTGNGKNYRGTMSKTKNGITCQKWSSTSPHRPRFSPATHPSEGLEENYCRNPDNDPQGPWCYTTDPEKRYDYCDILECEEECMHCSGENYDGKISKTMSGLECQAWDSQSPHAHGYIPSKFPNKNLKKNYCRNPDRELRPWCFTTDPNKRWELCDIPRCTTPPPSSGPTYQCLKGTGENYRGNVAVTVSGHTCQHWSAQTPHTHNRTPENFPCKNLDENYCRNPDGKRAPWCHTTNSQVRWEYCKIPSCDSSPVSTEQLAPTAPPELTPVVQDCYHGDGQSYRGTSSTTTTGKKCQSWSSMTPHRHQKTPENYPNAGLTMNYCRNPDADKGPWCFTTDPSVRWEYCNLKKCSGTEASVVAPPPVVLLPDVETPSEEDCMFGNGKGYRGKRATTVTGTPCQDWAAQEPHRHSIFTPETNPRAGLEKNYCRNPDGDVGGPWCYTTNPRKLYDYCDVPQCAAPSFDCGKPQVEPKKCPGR

| SMILES | Percent inhibition of clotting activity ([1]; 3 × 10^-4 M, DMSO control) | Percent inhibition of clotting activity ([1]; 3 × 10^-5 M, DMSO control) | Percent inhibition of clotting activity ([1]; 10^-3 M, DMSO control) | Percent inhibition of clotting activity ([1]; 10^-4 M, DMSO control) | Percent inhibition of clotting activity ([1]; 10^-5 M, DMSO control) | IC50 (Human Plasma Kallikrein; in vitro, TAMe) | IC50 (Bovine Thrombin) | IC50 (Human Plasmin; in vitro, TAMe) | IC50 (Human Cl Esterase) | LD50 [2] | % protective (thrombin; 1 mg/kg i.p.) | Survived / Tested (thrombin; 1 mg/kg i.p.) | % protective (thrombin; 10 mg/kg i.p.) | Survived / Tested (thrombin; 10 mg/kg i.p.) | % protective (thrombin; 100 mg/kg i.p.) | Survived / Tested (thrombin; 100 mg/kg i.p.) | IC50 (Trypsin; in vitro, TAMe) | Percent inhibition of clotting activity ([1]; 3 × 10^-5 M, H2O control) | Percent inhibition of clotting activity ([1]; 10^-4 M, H2O control) | Percent inhibition of clotting activity ([1]; 10^-5 M, H2O control) | further results |
| --- | --- | --- | --- | --- | --- | --- | --- | --- | --- | --- | --- | --- | --- | --- | --- | --- | --- | --- | --- | --- | --- |
| CCCCOc1ccc(OC(=O)C2CCCc3ccc(NC(=N)N)cc32)cc1 (centres unmarked) [Compound 142] | 13.0% | -3.0% | 61.0% | 0.0% | -5.0% | 76 µM | 24 µM | 360 µM | 460 µM |  |  |  |  |  |  |  |  |  |  |  | inhibition at 1000 µM (Trypsin): 36.9% |
| COC(=O)c1ccc(OC(=O)C2CCCc3c(NC(=N)N)cccc32)cc1 (centres unmarked) [Compound 118] |  |  |  |  |  |  | 80 µM | 1000 µM | 780 µM | 192 mg/kg | 20% | 2/10 | 30% | 3/10 | 40% | 4/10 | 1000 µM |  |  |  |  |
| Cl.N=C(N)Nc1ccc2c(c1)C(C(=O)Oc1ccccc1)CCC2 (centres unmarked) [Compound 134, phenyl 7-guanidino-1,2,3,4-tetrahydro-1-naphthoate hydrochloride] |  |  |  |  |  | 290 µM | 27 µM |  | 370 µM |  | 0% | 0/9 | 10% | 1/10 | 70% | 7/10 |  | 11.1% | 42.2% | 13.3% | Percent inhibition of clotting activity ([1]; 3 × 10^-4 M, H2O control): 97.8%; Percent inhibition of clotting activity ([1]; 10^-3 M, H2O control): 100%; inhibitory activity on kallikrein (Human Plasma Kallikrein; text of Examples): had an inhibitory activity; inhibition at 1000 µM (Trypsin): 40.6%; inhibition at 1000 µM (Human Plasmin): < 3.2%; inhibitory activity on plasmin (Human Plasmin; text of Examples): no activity at all; inhibitory activity on Cl-esterase (Human Cl Esterase; text of Examples): had an inhibitory activity |
| CCOC(=O)c1ccc(OC(=O)C2CCCc3ccc(NC(=N)N)cc32)cc1 (centres unmarked) [Compound 148] |  |  |  |  |  | 170 µM | 6 µM | 140 µM | 260 µM | 92 mg/kg | 0% | 0/10 | 30% | 3/10 | 90% | 9/10 | 150 µM | 20.0% | 6.7% | -2.2% | Percent inhibition of clotting activity ([1]; 3 × 10^-4 M, H2O control): 55.6%; Percent inhibition of clotting activity ([1]; 10^-3 M, H2O control): 100% |
| N=C(N)c1ccc(CC(=O)C(=O)O)cc1 [APPA-Na, sodium p-amidinophenyl pyruvate, reference compound] | 86.5% | -9.5% | 100.0% | 44.2% | -11.7% |  |  |  |  |  | 0% | 0/9 | 33% | 3/9 | 46% | 5/11 |  |  |  |  |  |
| N=C(N)Nc1cccc2c1CCCC2C(=O)Oc1ccc(Cl)cc1 (centres unmarked) [Compound 111] |  |  |  |  |  |  |  |  | 680 µM | 333 mg/kg |  |  |  |  |  |  |  |  |  |  | inhibition at 1000 µM (Human Plasma Kallikrein; at 10^-3 M, in vitro, TAMe, read-out: Kallikrein percent inhibition): < 3.2%; inhibition at 1000 µM (Bovine Thrombin; at 10^-3 M, in vitro, TAMe, read-out: Thrombin percent inhibition): 18.6%; inhibition at 1000 µM (Trypsin; at 10^-3 M, in vitro, TAMe): 19%; inhibition at 1000 µM (Human Plasmin; at 10^-3 M, in vitro, TAMe): < 3.2% |
| COC(=O)c1ccc(OC(=O)C2CCCc3ccc(NC(=N)N)cc32)cc1 (centres unmarked) [Compound 144] | 57.3% | 1.7% | 98.1% | 58.0% | -3.6% |  | 19 µM | 45 µM | 310 µM | 192 mg/kg |  |  |  |  |  |  | 14 µM |  |  |  |  |
| N=C(N)Nc1ccc2c(c1)C(C(=O)Oc1ccc(Cl)cc1)CCC2 (centres unmarked) [Compound 137] |  |  |  |  |  | 120 µM | 45 µM | 1000 µM | 250 µM |  |  |  |  |  |  |  | 78 µM | 10.0% | 2.0% | -5.0% |  |
